Assay in all cases: NCI anticancer screen, dose series, 48 h
The subject of test [1] is TK-10 renal.
Test [2] deals with MOLT-4 leukemia.
In test [3] the test system is OVCAR-8 ovarian.
Test [4] relates to HOP-62 NSCLC.
Test [5] concerns K-562 leukemia.
Test [6] concerns A498 renal.
The test system of test [7] is SK-MEL-28 melanoma.
Test [8] concerns LOX IMVI melanoma.
For test [9], the system named is NCI/ADR-RES ovarian.

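Compound exposure: 48 hours, 5 concentrations, 96-well plates. GI50 marks 50% less growth. TGI is the concentration that stops growth completely.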

Regarding `N/N=C1\C(=O)N(C2CCCCCC2)C(=O)C1C(=O)NC1CCCCCC1` (stereo unspecified), the TGI in test [1] is more than 10 µM; in [2], 55.7 µM; in test [3], more than 100 µM; in test [4], more than 10 µM; in [5] it was more than 100 µM; in test [6], more than 100 µM. For the same compound, the TGI in [7] was more than 10 µM.
On to `O=C(CCC(=O)Nc1ccc(Cl)c(Cl)c1)CC(=O)c1ccc(Br)cc1`, for which the TGI in test [8], in [1], in [2], in test [3], in test [5] and in [6] was more than 100 µM throughout. For the same compound, the TGI in test [7] was more than 100 µM.
Take `C=C1C(=O)OC2C/C(C)=C/CC/C(C)=C/CCC3(COC(C)=O)OC3CC12` (stereo unspecified): the TGI in [8] amounted to 23 µM; in [1], 19.5 µM; in [2], 26.3 µM; in test [3], 19.8 µM; in test [4], 34.7 µM; in test [5], 32.7 µM. Also, the TGI in test [6] worked out at 27 µM; in test [7], 23.1 µM.
`Cc1nn[n-]n1.N.N.N.N.N.[Cl-].[Co+3]`: the GI50 in [8], in test [1], in test [2], in test [3], in test [4] and in test [5] was more than 100 µM each time. For the same compound, the GI50 in test [7] is more than 100 µM. Also, the TGI in test [8], in [1], in [2], in test [3], in test [4] and in [5] was more than 100 µM each time. Also, the TGI in [7] is more than 100 µM.
As for `O=S(=O)(NCCNc1nccc(-c2c(-c3ccc(F)c(O)c3)nc3sccn23)n1)c1ccc(F)cc1`, the GI50 was 0.675 µM in [8]; 16.2 µM in test [1]; 2.71 µM in [2]; 4.25 µM in [3]; 5.09 µM in [4]; 2.55 µM in test [5]. For the same compound, the results for the GI50 in test [9], in test [6] and in [7] were 8.5 µM, 5.72 µM and 0.429 µM, respectively. Further, the TGI in [8] is 18 µM; in test [1], 96.7 µM; in test [2] it was 12.9 µM; in test [3], 48 µM; in test [4], 74.4 µM; in test [5] it was more than 100 µM. Further, the TGI was more than 100 µM in test [9], 18.2 µM in [6] and 21.9 µM in [7].
On to `CC(C)(C)c1cc(C(O)(C(F)(F)F)C(F)(F)F)c2c(c1)C(C(F)(F)F)(C(F)(F)F)OC(C)(C(C)(C)C)N2` (stereo unspecified), for which the figures for the TGI in [2], in [5] and in test [7] were 7.96 µM, 12.7 µM and 28.6 µM, respectively.
Consider `COC(=O)/C=C(C)/C=C/C1OC(C)OCC1O` (stereo unspecified), for which the TGI in [8], in test [1], in test [2], in [3], in test [4] and in test [5] was more than 100 µM each time. The TGI in [6] is more than 100 µM.
As for `N#CN/C(N)=N/C/N=C(\N)NC#N`, the TGI in [1], in test [2], in test [3], in [4], in [5] and in test [6] was more than 100 µM each time. In [7], this compound had a TGI of more than 100 µM.
Turning to `CCNC(=O)COc1ccc(Br)cc1Br`, the TGI in [8], in test [2], in test [4], in test [5], in test [6] and in test [7] was more than 100 µM throughout.
`CC(=O)N/N=C1\CC(C)(C)C2CCC1C2` (stereo unspecified): the TGI in test [8], in test [1], in test [2], in test [3], in test [4] and in test [5] was more than 100 µM each time. For the same compound, the TGI in test [6] and in test [7] was more than 100 µM in each case.
Take `CCC1CC2C(=O)N(c3ccccc3)C(=O)C2c2[nH]c3ccccc3c21` (stereo unspecified): the TGI in test [8] was 47.8 µM; in test [1] it was 68.3 µM; in test [2], more than 100 µM; in [3], 35.2 µM; in [5], more than 100 µM; in test [6] it was 67.7 µM. The TGI in test [7] is more than 100 µM.
As to `CC1=CC(=O)CC2(C)CC[C@@H]3C[C@]12OC3(C)C` (stereo partly specified), the TGI in test [8], in test [1], in test [2], in test [3], in [4] and in test [5] was more than 100 µM throughout. Also, the TGI in [6] and in test [7] was more than 100 µM in each case.
With `Nc1ccccc1C#C/C=C\C#Cc1ccc(OCCCNC(=O)c2cc3ccccc3[nH]2)cc1`, the GI50 is 2.77 µM in test [8]; 17.3 µM in test [1]; 49.4 µM in test [2]; 42.4 µM in [3]; 15.7 µM in [4]; 16.1 µM in test [5]. In addition, the results for the GI50 in [9], in test [6] and in test [7] were 10.1 µM, 23 µM and more than 100 µM, respectively. Further, the TGI in test [8] was 28.7 µM; in [1] it was 53.5 µM; in test [2], more than 100 µM; in test [3], more than 100 µM; in [4], 35.7 µM; in test [5], more than 100 µM. The TGI was more than 100 µM in test [9], 48.3 µM in test [6] and more than 100 µM in [7].
As for `COc1ccc(OC)c(NC(=O)CCC/C(CC(=O)c2ccc(O)c(OC)c2)=N\Nc2nnc(C)n2N)c1`, the TGI in [8], in [1], in [2], in test [3], in test [4] and in test [5] was more than 100 µM throughout. Besides, the TGI in test [6] and in [7] was more than 100 µM in each case.
